This note sets out measurements from US20220324865A1 (Bayer Aktiengesellschaft, priority 2018, published 2022).

Each structure is given as a SMILES string. Structures can show the parent of a compound that is named as a salt.

The test deals with T1, human EP3 receptor (Homo sapiens, UniProt P43115).
T1 construct: expressed in transfected cells; host or cells: CHO K1 (Chinese Hamster Ovary), stably co-transfected with Galpha16 and mitochondrial clytin
T1 sequence (P43115 1-390): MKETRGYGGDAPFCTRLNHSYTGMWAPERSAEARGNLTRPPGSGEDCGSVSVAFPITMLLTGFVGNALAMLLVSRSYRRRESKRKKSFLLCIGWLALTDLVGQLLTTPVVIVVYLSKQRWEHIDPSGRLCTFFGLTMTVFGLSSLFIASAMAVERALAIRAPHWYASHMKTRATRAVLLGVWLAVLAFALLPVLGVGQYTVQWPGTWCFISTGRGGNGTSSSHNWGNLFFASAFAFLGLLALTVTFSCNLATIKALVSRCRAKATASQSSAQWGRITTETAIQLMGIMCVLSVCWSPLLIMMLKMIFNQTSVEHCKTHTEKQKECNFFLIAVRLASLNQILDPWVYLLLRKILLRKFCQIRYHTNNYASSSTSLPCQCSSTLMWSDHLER
Put plainly: Cellular in vitro assay for determining EP3 receptor activity (human EP3 cell line, sulprostone-stimulated calcium luminescence). The class given is cell-based. Conditions: CHO cells expressing human EP3 and mitochondrial Clytin; antagonist mode, sulprostone at EC50; read-out: EP3 CHO mtCLY ANTAG IC50. As to the method:
B-1. Cellular In Vitro Assay for Determining EP3 Receptor Activity
The identification of antagonists of the EP3 receptor from humans and rats as well as the quantification of the activity of the compounds of the invention was carried out using recombinant cell lines. These cell lines originally derive from a hamsters ovary epithelial cell (Chinese Hamster Ovary, CHO K1, ATCC: American Type Culture Collection, Manassas, Va. 20108, USA). The test cell lines constitutively express the human or rat EP3 receptors. The naturally Gαi-coupled human and rat EP3 receptors were stably co-transfected with Gα16 into cells that are also stably transfected with a mitochondrial form of the calcium-sensitive photoproteins Clytin (human EP3) or Photina (rat EP3), which, after reconstitution with the cofactor coelenterazine, emit light when there are increases in free calcium concentrations (Nature 1992, 358, 325-327; Gene 1995, 153 (2), 273-274). The resulting EP3 receptor cells react to stimulation of the recombinantly expressed EP3 receptors by the agonist sulprostone with intracellular release of calcium ions, which can be quantified by the resulting photoprotein luminescence. Antagonists inhibit the receptor signaling, leading to reduced calcium release and luminescence. The bioluminescence of the cell lines is detected using a suitable luminometer (Trends Pharmacol. Sci. 1996, 17, 235-237).
Human and Rat EP3 Cell Lines:
On the day before the assay, the cells are plated out in culture medium (OptiMEM, 1% FCS, 2 mM glutamine, 10 mM HEPES, 5 μg/ml coelenterazine) in 384-well microtiter plates and kept in a cell incubator (96% humidity, 5% v/v CO2, 37° C.). On the day of the assay, test compounds in various concentrations are placed for 10 minutes in the wells of the microtiter plate before the agonist sulprostone at EC50 concentration is added. The resulting light signal is measured immediately in a luminometer. All concentrations are measured in quadruples.
For the molecule `Cc1ccc(-c2cn3nc(C(=O)NC(c4ccc(C(F)(F)F)cc4)C(C)(C)O)c(C4CC4)c3c(=O)[nH]2)cc1C` (single isomer, unassigned) [6-458], the IC50 came to 2.15 nM.
In the case of `Cc1ccc(-c2cn3nc(C(=O)NC(C)C4CCC4)c(C(F)(F)F)c3c(=O)[nH]2)cc1Cl` (single isomer, unassigned) [6-194] it was 2.55 nM; in that of `Cc1ccc(-c2cn3nc(C(=O)NC(CCO)c4ccc(C(F)(F)F)cc4)cc3c(=O)[nH]2)cc1C` (centres unmarked) [Example 1-86, 6-(3,4-Dimethylphenyl)-N-[3-hydroxy-1-[4-(trifluoromethyl)phenyl]propyl]-4-oxo-5H-pyrazolo-[1,5-a]pyrazine-2-carboxamide], 0.715 nM; in that of `O=C(N[C@@H](c1ccc(F)cc1)C(F)(F)CO)c1nn2cc(-c3ccc(Cl)c(F)c3)[nH]c(=O)c2c1C1CC1` [6-95], 1.73 nM.
On to `Cc1c(C(=O)NC2(c3ccc(F)cc3)CCN(CC(F)(F)F)CC2)nn2cc(-c3ccc4ccccc4c3)[nH]c(=O)c12` [6-5], for which the IC50 is 4.85 nM.
In the case of `Cc1cc(-c2cn3nc(C(=O)NC(C)C4CCC4)c(C(F)(F)F)c3c(=O)[nH]2)ccc1Cl` (single isomer, unassigned) [6-223] it was 1.25 nM.
In the case of `N#Cc1c(C(=O)NC2(c3ccccc3)CC2)nn2cc(-c3ccc4ccccc4c3)[nH]c(=O)c12` [Example 3-49, 3-Cyano-6-(naphthalen-2-yl)-4-oxo-N-(1-phenylcyclopropyl)-4,5-dihydropyrazolo[1,5-a]pyrazine-2-carboxamide] it was 1.35 nM.
In the case of `Cc1cccc2ncc(-c3cn4nc(C(=O)NCCCS(C)(=O)=O)c(C(C)C)c4c(=O)[nH]3)cc12` [Example 4-35, N-[3-(Methansulfonyl)propyl]-6-(5-methylquinolin-3-yl)-4-oxo-3-(propan-2-yl)-4,5-dihydropyrazolo[1,5-a]pyrazine-2-carboxamide] it was 1.9 nM; in that of `Cc1ccc(-c2cn3nc(C(=O)NC(CO)C(F)(F)F)c(C4CC4)c3c(=O)[nH]2)cc1C(F)(F)F` (single isomer, unassigned) [6-250], 6.3 nM; in that of `Cc1nn(C(CNC(=O)c2cc3c(=O)[nH]c(-c4ccc5ccccc5c4)cn3n2)C(C)C)c(C)c1Cl` (centres unmarked) [Example 2-20, N-[2-(4-Chloro-3,5-dimethyl-1H-pyrazol-1-yl)-3-methylbutyl]-6-(2-naphthyl)-4-oxo-4,5-dihydropyrazolo[1,5-a]pyrazine-2-carboxamide], 9.75 nM.
Regarding `CC(NC(=O)c1cc2c(=O)[nH]c(-c3ccc4ccccc4c3)cn2n1)c1ccc(O)cc1` (centres unmarked) [Example 1-136, N-[1-(4-Hydroxphenyl)ethyl]-6-(2-naphthyl)-4-oxo-5H-pyrazolo[1,5-a]pyrazine-2-carboxamide], the half-maximal inhibitory concentration (IC50) was 5.8 nM.
In the case of `Cc1cccc2ncc(-c3cn4nc(C(=O)NCc5ccc(CN6CCCC6)cc5)c(C(C)C)c4c(=O)[nH]3)cc12` [Example 4-48, 6-(5-Methylquinolin-3-yl)-4-oxo-3-(propan-2-yl)-N-({4-[(pyrrolidin-1-yl)methyl]phenyl}methyl)-4,5-dihydropyrazolo[1,5-a]pyrazine-2-carboxamide] it was 4.75 nM.
In the case of `Cc1c(C(=O)NC(C)c2ccc(Cl)c(Cl)c2)nn2c(C)c(-c3ccc4ccccc4c3)[nH]c(=O)c12` (centres unmarked) [Example 3-16, N-[1-(3,4-Dichlorophenyl)ethyl]-3,7-dimethyl-6-(2-naphthyl)-4-oxo-5H-pyrazolo[1,5-a]pyrazine-2-carboxamide] it was 7.2 nM.
In the case of `COc1ccc(C2(NC(=O)c3cc4c(=O)[nH]c(-c5ccc6ccccc6c5)cn4n3)CN(C)C2)cc1` [Example 1-59, N-[3-(4-Methoxyphenyl)-1-methylazetidin-3-yl]-6-(naphthalen-2-yl)-4-oxo-4,5-dihydropyrazolo-[1,5-a]pyrazine-2-carboxamide formic acid salt], the IC50 was found to be 5.9 nM.
As to `Cc1ccc(-c2cn3nc(C(=O)NC4(c5ccc(F)cc5)CN(C5CC5)C4)c(C(F)(F)F)c3c(=O)[nH]2)cc1Cl` [6-203], the IC50 stood at 1.5 nM.
Under `Cc1ccc(-c2cn3nc(C(=O)NCC(O)(C(F)(F)F)C(F)(F)F)c(C4CC4)c3c(=O)[nH]2)cc1C` [6-434] stands 1.95 nM; under `Cc1ccc(-c2cn3nc(C(=O)NC(CO)C(F)(F)F)c(C4CC4)c3c(=O)[nH]2)cc1F` (racemic) [6-392], 4.4 nM.
In the case of `O=C(N[C@H](CO)c1ccccc1)c1nn2cc(-c3ccc4ccccc4c3)[nH]c(=O)c2c1C(F)(F)F` [Example 1-77, N-[(1S)-2-Hydroxy-1-phenylethyl]-6-(naphthalen-2-yl)-4-oxo-3-(trifluoromethyl)-4,5-dihydropyrazolo[1,5-a]pyrazine-2-carboxamide] it was 1.18 nM; in that of `Cc1cc(-c2cn3nc(C(=O)N[C@H](C)C(C)C)c(C(F)(F)F)c3c(=O)[nH]2)ccc1Cl` [6-217], 1.95 nM; in that of `CCn1cnnc1CNC(=O)c1nn2cc(-c3cnc4cccc(C)c4c3)[nH]c(=O)c2c1C(C)C` [Example 4-20, N-[(4-Ethyl-4H-1,2,4-triazol-3-yl)methyl]-6-(5-methylquinolin-3-yl)-4-oxo-3-(propan-2-yl)-4,5-dihydropyrazolo[1,5-a]pyrazine-2-carboxamide], 2.9 nM.
Under `COc1ccc(CCNC(=O)c2cc3c(=O)[nH]c(-c4ccc5ccccc5c4)cn3n2)cc1OC` [6-75] stands 8.63 nM; under `C[C@@H](NC(=O)c1cc2c(=O)[nH]c(-c3ccc4c(c3)CCCC4)cn2n1)c1ccc(F)cc1` [Example 1-101, N-[(1R)-1-(4-Fluorophenyl)ethyl]-4-oxo-6-(5,6,7,8-tetrahydronaphthalen-2-yl)-4,5-dihydropyrazolo[1,5-a]pyrazine-2-carboxamide], 1.7 nM; under `Cc1cc(-c2cn3nc(C(=O)NCC(O)(C(F)(F)F)C(F)(F)F)c(C4CC4)c3c(=O)[nH]2)ccc1F` [6-658], 7 nM.
With `CC(C)(O)[C@@H](NC(=O)c1nn2cc(-c3ccc(Cl)c(F)c3)[nH]c(=O)c2c1C1CCC1)c1ccc(F)cc1` [6-572], the IC50 was determined as 2.8 nM.
Under `Cc1cc(-c2cn3nc(C(=O)NCC(N)C(F)(F)F)c(C4CC4)c3c(=O)[nH]2)ccc1C(F)(F)F` (single isomer, unassigned) [6-131] stands 10.1 nM; under `N#Cc1c(C(=O)N[C@@H](CCO)c2ccc(F)cc2)nn2cc(-c3ccc4ccccc4c3)[nH]c(=O)c12` [Example 1-72, 3-Cyano-N-[(1S)-1-(4-fluorophenyl)-3-hydroxpropyl]-6-(naphthalen-2-yl)-4-oxo-4,5-dihydropyrazolo[1,5-a]pyrazine-2-carboxamide], 6.55 nM; under `Cc1ccc(-c2cn3nc(C(=O)NC4(C)CCC4)c(C(F)(F)F)c3c(=O)[nH]2)cc1F` [6-146], 10 nM.
In the case of `Cc1cc(-c2cn3nc(C(=O)N[C@@H](c4ccc(F)cc4)C(C)(C)O)c(C4CC4)c3c(=O)[nH]2)ccc1Cl` [Example 1-173, 6-(4-Chloro-3-methylphenyl)-3-cyclopropyl-N-[(1S)-1-(4-fluorophenyl)-2-hydroxy-2-methylpropyl]-4-oxo-4,5-dihydropyrazolo[1,5-a]pyrazine-2-carboxamide] it was 0.73 nM; in that of `O=C(N[C@H]1CCc2ccccc21)c1cc2c(=O)[nH]c(-c3ccc4ccccc4c3)cn2n1` [Example 2-42, N-[(7S)-2,3-Dihydro-1H-inden-1-yl]-6-(2-naphthyl)-4-oxo-4,5-dihydropyrazolo[1,5-a]pyrazine-2-carboxamide], 7.27 nM.

For orientation: IC50 means the concentration needed to halve the response being measured.
